From patent publication US4542219A, “Certain heterocyclic ammonio phosphate derivatives” (Takeda Chemical Industries, Ltd., priority 1981, dated 1985)
Like-named read-outs stand apart in the source and are kept apart here.

How the values were obtained:
[1] = system: Helminthosporium sigmordeum; assay: Antifungal activity, serial dilution method; type: cell-based
[2] = system: human promyelocytic leukemia cell HL-60; assay: Cell proliferation inhibition and differentiation induction, human promyelocytic leukemia cell HL-60 (Test Example 1): proliferation; type: cell-based; details: HL-60, 120 h, 5 days' culture, read-out: Cell proliferation inhibitory activity GD50
Protocol: The cell proliferation inhibitory activity (GD50) and differentiation inducing activity of the compound of this invention against human promyelocytic leukemia cell HL-60 are shown in Table 1. The assays were performed by the method described for example in R. Gallo et al, Blood. vol. 54, No. 3, 713 (1979).

Helminthosporium oryzae = assay: Antifungal activity, serial dilution method; type: cell-based; details: Bipolaris oryzae
Botrytis cinerea = assay: Antifungal activity, serial dilution method; type: cell-based
Pyricularia oryzae = assay: microbe, parasite or virus in culture; type: cell-based
Sclerotinia sclerotiorum = assay: Antifungal activity, serial dilution method; type: cell-based; details: kidney bean stem rot, 1% glucose-bouillon agar
Tetrahymena pyriformis W = assay: Antiprotozoal activity, broth dilution method; type: cell-based; details: 28° C. for 44 to 48 hours, pH 7.0
Protocol: The antiprotozoal activity values given in Table 2 were assayed using Tetrahymena pyriformis W as the test organism and an assay medium composed of 20 g tryptose peptone (Difco), 1 g yeast extract, 2 g glucose, 1000 ml distilled water and 10 ml 1 M phosphate buffer, pH 7.0. Thus, the strain was incubated at 28° C. for 44 to 48 hours and the minimal inhibitory concentration (MIC) of the compound (I) was determined by the broth dilution method.

Saccharomyces cerevisiae = assay: Antifungal activity, serial dilution method; type: cell-based
Cryptococcus neoformans = assay: Antimycotic activity, paper disk zone of inhibition; type: cell-based; details: 48 h, 3 mg/ml, 8 mm paper disk, 37° C. for 2 days, read-out: Diameter of inhibition zone
Protocol: The antimycotic activity values presented in Table 2 were assayed using Cryptococcus neoformans as the test organism. Thus, a paper disk (8 mm dia.) was dipped into an aqueous solution of the test compound (3 mg/ml), dried in the air and set in position on an agar medium. The medium was incubated at 37° C. for 2 days, at the end of which time the diameter of the zone of inhibition was measured. When the diameter of the zone was not larger than 8 mm, 8-10 mm, 10-20 mm and larger than 20 mm, the activity was judged as -, ±, + and ++, respectively.

Penicillium niger = assay: Antifungal activity, serial dilution method; type: cell-based
Aspergillus niger = assay: Antifungal activity, serial dilution method; type: cell-based
[3] = system: Colletotrichum lagenarium; assay: Antifungal activity, serial dilution method; type: cell-based; details: Colletotrichum orbiculare
[4] = Hemolysis test (method of Gottfried et al); type: cell-based; details: erythrocytes; in the presence of 5% human albumin; read-out: 50% hemolytic concentration
Description: The compound (I) is of relatively low toxicity and has generally low hemolytic activity. […] In these compounds (I), the influence of the length of chain R^1 varies with the other moiety of the molecule.

sarcoma 180 = assay: Antitumor activity against sarcoma 180; type: in vivo, ICR mice; details: 500 μg/mouse
MM46 mammarian carcinoma = assay: Antitumor activity against MM46 mammarian carcinoma; type: in vivo, C3 H/He mice; details: 250 μg/mouse/day, once daily, eight days in total; control average 14.2 days
Protocol: MM46 mammarian carcinoma cells (1×10^5) was transplanted intraperitoneally to each of five C3 H/He mice group. From five days to two days before the transplantation and from two day to five days after the transplantation, eight days in total. 250 μg/mouse/day of the test compound was administered to the test group, once daily. Survival period of three of the test group was not less than 60 days, and that of the remaining two was 23 days in average. On the other hand, the average survival period of mice of the control group was 14.2 days.

[5] = gray mold, 1% glucose-bouillon agar, read-out: MIC
[6] = black mold, 1% glucose-bouillon agar, read-out: MIC
[7] = blue mold, 1% glucose-bouillon agar, read-out: MIC
[8] = rice stem rot, 1% glucose-bouillon agar, read-out: MIC
[9] = brewer's yeast, 1% glucose-bouillon agar, read-out: MIC
[10] = cucumber anthracnose, 1% glucose-bouillon agar, read-out: MIC

| Structure (SMILES) | IC50 [2] | MIC (Helminthosporium oryzae) | MIC (Pyricularia oryzae) | MIC (Sclerotinia sclerotiorum) | MIC (Tetrahymena pyriformis W) | zone of inhibition at 3000 µg/mL (Cryptococcus neoformans) | MIC (Aspergillus niger; [6]) | also measured |
| --- | --- | --- | --- | --- | --- | --- | --- | --- |
| CCCCCCCCCCCCCCOCCOP(=O)([O-])OCC[N+](C)(C)C [Production Example 1, 2-Tetradecyloxyethyl 2-trimethylammonioethyl phosphate] | 3.8 µg/mL | 12.5 µg/mL | 3.12 µg/mL | 50 µg/mL | 0.4 µg/mL | > 20 mm | – | MIC [1]: 3.12 µg/mL; MIC (Botrytis cinerea): 12.5 µg/mL; MIC (Saccharomyces cerevisiae): < 3.12 µg/mL; MIC (Penicillium niger): 12.5 µg/mL; MIC (Aspergillus niger): 12.5 µg/mL; MIC [3]: 3.12 µg/mL |
| CCCCCCCCCCCCCOCCOP(=O)([O-])OCC[N+](C)(C)C [Production Example 2, 2-Tridecyloxyethyl 2-trimethylammonioethyl phosphate] | – | 6.25 µg/mL | 6.25 µg/mL | 12.5 µg/mL | 0.4 µg/mL | > 20 mm | 12.5 µg/mL | MIC [1]: 6.25 µg/mL; MIC (Botrytis cinerea; [5]): 12.5 µg/mL; MIC (Saccharomyces cerevisiae): 6.25 µg/mL; MIC (Penicillium niger): 25 µg/mL; HC50 [4]: ~80 µg/mL; MIC [3]: 3.12 µg/mL |
| CCCCCCCC/C=C\CCCCCCCCOCCOP(=O)([O-])OCC[N+](C)(C)C [Production Example 3, 2-Oleyloxyethyl 2-trimethylammonioethyl phosphate] | – | 6.25 µg/mL | 1.56 µg/mL | 100 µg/mL | 0.4 µg/mL | > 20 mm | 25 µg/mL | MIC [1]: 6.25 µg/mL; MIC (Botrytis cinerea; [5]): 3.12 µg/mL; MIC (Saccharomyces cerevisiae): 12.5 µg/mL; MIC (Penicillium niger; [7]): 50 µg/mL; MIC [3]: 6.25 µg/mL |
| CCCCCCCCCCCCOCCOP(=O)([O-])OCC[N+](C)(C)C [Production Example 4, 2-Dodecyloxyethyl 2-trimethylammonioethyl phosphate] | – | 12.5 µg/mL | 12.5 µg/mL | 100 µg/mL | 0.4 µg/mL | 10 to 20 mm | 25 µg/mL | MIC [1, 8]: 25 µg/mL; MIC (Botrytis cinerea; [5]): 25 µg/mL; MIC (Saccharomyces cerevisiae; [9]): 25 µg/mL; MIC (Penicillium niger; [7]): 25 µg/mL; MIC [3, 10]: 6.25 µg/mL |
| CCCCCCCCCCCCCCOCCOP(=O)(O)OCCN [Production Example 5, 2-Tetradecyloxyethyl 2-aminoethyl phosphate] | – | > 100 µg/mL | 25 µg/mL | 100 µg/mL | 4 µg/mL | 8 to 10 mm | 25 µg/mL | MIC [1, 8]: > 100 µg/mL; MIC (Botrytis cinerea): 50 µg/mL; MIC (Saccharomyces cerevisiae; [9]): 25 µg/mL; MIC (Penicillium niger; [7]): 50 µg/mL; MIC [3, 10]: 25 µg/mL |
| CCCCCCCCCCCCCCCCCCOCCOP(=O)(O)OCCN [Production Example 6, 2-Octadecyloxyethyl 2-aminoethyl phosphate] | 3 µg/mL | – | – | – | > 4 µg/mL | 8 to 10 mm | – | – |
| CCCCCCCCCCCCCCCOCCOP(=O)([O-])OCC[N+](C)(C)C [Production Example 7, 2-Pentadecyloxyethyl 2-trimethylammonioethyl phosphate] | 1.2 µg/mL | – | – | – | ≤ 1 µg/mL | 10 to 20 mm | – | – |
| CCCCCCCCCCCCCCCOCCOP(=O)([O-])OCC[n+]1ccccc1 [Production Example 8, 2-Pentadecyloxyethyl 2-pyridinioethyl phosphate] | 3.4 µg/mL | – | – | – | 4 µg/mL | 10 to 20 mm | – | – |
| CCCCCCCCCCCCCCOCCOP(=O)([O-])OCC[n+]1ccccc1 [Production Example 9, 2-Tetradecyloxyethyl 2-pyridinioethyl phosphate] | 4.1 µg/mL | – | – | – | 4 µg/mL | > 20 mm | – | – |
| CCCCCCCCCCCCCCCCCCOCCOP(=O)([O-])OCC[n+]1ccccc1 [Production Example 10, 2-Octadecyloxyethyl 2-pyridinioethyl phosphate] | 1.5 µg/mL | – | – | – | 4 µg/mL | – | – | survival rate of the test group against the control group T/C (sarcoma 180): 310%; Average survival period (sarcoma 180; four days before ip transplantation of 1×10^5 cells, control 9.6 days): 29.8 days; Average survival period of the remaining two of the test group (five mice) (MM46 mammarian carcinoma): 23 days; Survival period of three of the test group (five mice) (MM46 mammarian carcinoma): not less than 60 days |
| CCCCCCCCCCCCCCOCCOP(=O)([O-])OCC[N+](C)(C)CCCC(=O)OC [Production Example 11, 2-Tetradecyloxyethyl 2-[N,N-dimethyl-N-(3-methoxycarbonylpropyl)]ammonioethyl phosphate] | 2.5 µg/mL | – | – | – | 4 µg/mL | – | – | – |
| CCCCCCCCCCCCCCOCCOP(=O)([O-])OCC[N+](C)(C)CCCC(=O)O [Production Example 12, 2-Tetradecyloxyethyl 2-[N-(3-carboxypropyl)-N,N-dimethyl]ammonioethyl phosphate] | 1.5 µg/mL | – | – | – | 0.4 µg/mL | – | – | – |
